“Also recorded” adds a separate entry of the source.

Holding throughout (type): cell-based, Mycobacterium tuberculosis
Experiment [1] relates to M.tb isolates.
In experiment [2] the test system is M.tb isolates. This is another data set of the same source.
Experiment [3] relates to M.tb isolates. The source holds these as a separate data set.

In the case of `NC[C@H]1O[C@H](O[C@H]2[C@H](O)[C@@H](O[C@H]3O[C@H](CO)[C@@H](O)[C@H](N)[C@H]3O)[C@H](N)C[C@@H]2N)[C@H](O)[C@@H](O)[C@@H]1O` [KAN, Kanamycin], the “Total number of isolates Resistant (LJ)” value in experiment [1] is 106. In experiment [2], the “Total number of isolates Resistant (MGIT)” value was determined as 113.

`NCC[C@H](O)C(=O)N[C@@H]1C[C@H](N)[C@@H](O[C@H]2O[C@H](CN)[C@@H](O)[C@H](O)[C@H]2O)[C@H](O)[C@H]1O[C@H]1O[C@H](CO)[C@@H](O)[C@H](N)[C@H]1O` [AMK, Amikacin]: in experiment [1], the “Susceptibility in LJ media” value was “susceptible” and the “Total number of isolates Resistant (LJ)” value is given as 90. Also, the “Level of resistance” value in experiment [3] was “high level resistance; also recorded: no resistance to AMK”.

For the origin of these results see US12139768B2, “Polymerase chain reaction primers and probes for Mycobacterium tuberculosis” (Rutgers, The State University of New Jersey, priority 2014, dated 2024).
